Measured values as given in PMC7368294 (Proceedings of the National Academy of Sciences of the …, 2020).

Target: T1, Btα1/Btα8/Btβ1 nAChR (Bombus terrestris, UniProt A0A9B0BGM1+A0A9B0F4H3+A0A9B2JDZ7)
T1 sequence (A0A9B0F4H3 44-615): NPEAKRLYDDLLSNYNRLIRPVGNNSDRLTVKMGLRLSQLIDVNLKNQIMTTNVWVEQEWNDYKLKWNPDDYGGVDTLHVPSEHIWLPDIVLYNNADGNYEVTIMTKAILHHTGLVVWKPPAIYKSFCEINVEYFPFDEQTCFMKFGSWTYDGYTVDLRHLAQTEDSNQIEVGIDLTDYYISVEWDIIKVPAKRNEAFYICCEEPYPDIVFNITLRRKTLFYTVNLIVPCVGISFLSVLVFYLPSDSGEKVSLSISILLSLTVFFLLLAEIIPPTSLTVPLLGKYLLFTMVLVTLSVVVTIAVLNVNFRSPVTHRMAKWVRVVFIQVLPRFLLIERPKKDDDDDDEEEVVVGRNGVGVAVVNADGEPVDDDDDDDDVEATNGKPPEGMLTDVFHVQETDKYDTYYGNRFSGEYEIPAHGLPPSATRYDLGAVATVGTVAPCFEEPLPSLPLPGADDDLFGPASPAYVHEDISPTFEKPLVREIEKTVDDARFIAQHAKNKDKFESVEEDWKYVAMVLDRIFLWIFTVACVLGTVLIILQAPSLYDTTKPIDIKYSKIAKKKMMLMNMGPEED
T1 sequence (A0A9B2JDZ7 22-535): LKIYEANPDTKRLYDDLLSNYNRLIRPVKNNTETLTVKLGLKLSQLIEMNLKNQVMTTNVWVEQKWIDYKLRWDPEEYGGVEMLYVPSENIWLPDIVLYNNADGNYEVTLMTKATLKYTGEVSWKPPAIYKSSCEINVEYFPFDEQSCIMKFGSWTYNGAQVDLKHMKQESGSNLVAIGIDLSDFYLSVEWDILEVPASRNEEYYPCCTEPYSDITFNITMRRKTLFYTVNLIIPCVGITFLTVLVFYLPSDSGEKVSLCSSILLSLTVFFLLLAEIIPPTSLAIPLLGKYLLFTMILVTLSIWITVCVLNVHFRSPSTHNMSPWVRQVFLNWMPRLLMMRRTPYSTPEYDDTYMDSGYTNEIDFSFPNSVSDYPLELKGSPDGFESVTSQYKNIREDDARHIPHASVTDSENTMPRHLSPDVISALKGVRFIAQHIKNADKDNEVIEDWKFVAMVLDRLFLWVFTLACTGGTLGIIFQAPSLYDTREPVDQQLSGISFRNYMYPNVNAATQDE
T1 sequence (A0A9B0BGM1 19-519): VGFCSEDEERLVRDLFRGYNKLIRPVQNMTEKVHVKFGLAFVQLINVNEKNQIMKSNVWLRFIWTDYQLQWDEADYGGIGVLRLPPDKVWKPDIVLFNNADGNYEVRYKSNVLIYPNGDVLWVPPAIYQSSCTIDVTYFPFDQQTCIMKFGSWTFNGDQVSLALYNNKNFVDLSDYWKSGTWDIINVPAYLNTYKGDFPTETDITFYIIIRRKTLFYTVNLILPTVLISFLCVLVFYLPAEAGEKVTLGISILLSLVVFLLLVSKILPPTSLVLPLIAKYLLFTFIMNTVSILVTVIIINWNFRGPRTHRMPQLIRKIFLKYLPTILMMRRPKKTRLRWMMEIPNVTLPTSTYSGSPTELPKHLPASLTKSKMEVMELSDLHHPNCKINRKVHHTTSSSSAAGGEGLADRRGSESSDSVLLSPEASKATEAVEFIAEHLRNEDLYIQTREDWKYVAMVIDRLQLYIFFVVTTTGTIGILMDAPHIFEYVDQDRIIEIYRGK
Assay: two-electrode voltage clamp of Xenopus oocytes, agonist concentration-response
Type: cell-based

**Q.** `CN/C(=N\[N+](=O)[O-])NCc1cnc(Cl)s1` [clothianidin] was tested. Which EC50 did it give?
**A.** 13.5 nM

**Q.** How did the EC50 turn out when `N#C/N=C1\SCCN1Cc1ccc(Cl)nc1` [thiacloprid] was run?
**A.** 51.3 nM

**Q.** Which EC50 does the source give for `O=[N+]([O-])NC1=NCCN1Cc1ccc(Cl)nc1` [imidacloprid] here?
**A.** 25.1 nM
